{"source": "patent US12584105B2", "about": "“Autologous cell replacement therapy for Parkinson's disease” (The McLean Hospital Corporation, priority 2019, dated 2026)", "key": {"[1]": {"test_system": "voltage-gated Na+ channels", "assay_type": "cell-based, human"}, "[2]": {"test_system": "undifferentiated C4 cells", "assay": "OCT4 qRT-PCR assay for undifferentiated cells", "assay_type": "cell-based, human", "conditions": "D14, D21 and D28 after quercetin treatment (40 μM at D9 for 16 hours)", "description": "(§1) For colony forming assay, each cell dilution was cultured for 6 days in E8 medium and pluripotent colonies were identified by AP staining. For the quercetin removal of undifferentiated cells, cells were treated with 40 μM quercetin for 16 hours and cultured in fresh E8 medium. For fluorescence activated cell sorting (FACS), C4 cells were dissociated using TrypLE and filtered through a 70 μm cell strainer. Single cell suspensions were first fixed with 4% formaldehyde for 10 mins and suspended in permeabilization buffer for 15 min on ice. After blocking for 30 min, cells were incubated with primary labeled antibodies (PE conjugated anti SSEA-4, TRA-1-60) for 1 hour on ice in the dark. After washing with PBS with 1% FBS, FACS analysis was performed using a BD Accuri C6 system (BD Bioscience) and data analyses were carried out according to manufacturer's instructions. Fluorochrome matched isotype controls were used and subtracted during analysis. For qRT-PCR assay, total RNA from all dilutions was extracted and subjected to qRT-PCR to determine OCT4 cycle times (Ct) value. OCT4 copy numbers were calculated from the equation curve that was generated from qRT-PCR of purified OCT4 partial sequence. Then, OCT4 copy numbers were plotted against PSC numbers."}, "[3]": {"test_system": "undifferentiated iPSCs", "assay": "Residual undifferentiated iPSCs in final cell product (immunostaining and real-time PCR)", "assay_type": "cell-based, human", "conditions": "final cell products at day 28 after quercetin", "text": "After treatment with quercetin, the final cell products (at day 28) had no detectable remaining undifferentiated iPSCs (with an upper boundary of the 95% confidence interval of <1 undifferentiated cell per 1 billion day-28 differentiated cells), on the basis of immunostaining and real-time polymerase chain reaction-based assays. Serotonergic neurons, a potential cause of graft-induced dyskinesia (Olanow et al. Ann Neurol 2003; 54:403-14), were not detected in the final product."}, "[4]": {"test_system": "undifferentiated C4 cells (human iPSCs)", "assay": "Quercetin treatment of undifferentiated hiPSCs (Trypan blue, hemocytometer)", "assay_type": "cell-based", "description": "To test the effect of Quercetin on human iPSC removal, human iPSCs were plated on 6 well plates. Cells were treated with each concentration of Quercetin (5, 10, 20, 40, and 100 μM) for 2, 6, 16, and 24 hours. After each time point, Quercetin containing medium was replaced with fresh medium and cells cultured for 48 hours from the initial Quercetin treatment time. Cells were dissociated using TrypLE and cell viability was measured using Trypan blue exclusion and hemocytometer.\nThe most critical issue for hPSC-based cell therapy is to establish safety by removing residual undifferentiated cells with neoplastic potential. Based on the previous finding that BIRC5 (encoding survivin) is highly expressed in hPSCs compared to somatic cells (40), we hypothesized that chemical inhibition of survivin would selectively eliminate remaining undifferentiated hiPSCs. However, since survivin is known to be important for neuronal precursors (41, 42), it is important to test whether this strategy interferes with mDAP generation. Among survivin inhibitors (40), we chose the flavonoid quercetin (3,3′,4′,5,7-pentahydroxyflavone) because this natural compound is present at high concentration in commonly consumed vegetables and fruits (43). We first treated 100,000 undifferentiated C4 cells with 5, 10, 20, 40, and 100 μM quercetin for 2, 6, 16, and 24 hours. […]"}, "[5]": {"test_system": "undifferentiated C4 cells", "assay": "Colony forming assay (AP staining) of C4 cells diluted among hDFs", "assay_type": "cell-based, human", "description": "as §1"}, "[6]": {"test_system": "NANOG+ undifferentiated cells", "assay": "NANOG immunostaining of D14 cells", "assay_type": "cell-based, human", "conditions": "D14, with quercetin treatment", "description": "hiPSC derived dopaminergic neurons were washed with phosphate-buffered saline (PBS) (with Ca^2+ and Mg^2+) and fixed with 4% formaldehyde in PBS (pH 7.4) for 10 mins. Cells were incubated for 1 hr in blocking solution (0.3% Triton X-100 and 1% horse serum in PBS) at room temperature. Cells were incubated with primary antibodies in PBS containing 0.3% Triton X-100 and 1% horse serum overnight. Cells were then incubated with the proper fluorescence-conjugated secondary antibodies with Hoechst 33342 for nuclei staining at room temperature for 1 hr. Cell images were obtained by confocal microscopy (KEYENCE, Osaka, Japan). Data regarding specific cell populations were determined from microscopic images using ImageJ software (11). To measure apoptotic cells, cells were stained for cleaved caspase 3, an apoptotic marker, and Hoechst 33342, a DNA-binding nuclear dye. After staining with Hoechst 33342, compacted chromatin is brighter than in normal cells, and the condensed nuclei were counted by fluorescence microscopy. Data regarding specific cell populations were determined from microscopic images by ImageJ software."}, "[7]": {"test_system": "D9 C4 cells (mostly neuronal precursors)", "assay": "Quercetin treatment of D9 differentiating cells, outcome on D11", "assay_type": "cell-based, human", "conditions": "different concentrations (5-100 μM) for 16 hours on D9", "text": "The most critical issue for hPSC-based cell therapy is to establish safety by removing residual undifferentiated cells with neoplastic potential. Based on the previous finding that BIRC5 (encoding survivin) is highly expressed in hPSCs compared to somatic cells (40), we hypothesized that chemical inhibition of survivin would selectively eliminate remaining undifferentiated hiPSCs. However, since survivin is known to be important for neuronal precursors (41, 42), it is important to test whether this strategy interferes with mDAP generation. Among survivin inhibitors (40), we chose the flavonoid quercetin (3,3′,4′,5,7-pentahydroxyflavone) because this natural compound is present at high concentration in commonly consumed vegetables and fruits (43). We first treated 100,000 undifferentiated C4 cells with 5, 10, 20, 40, and 100 μM quercetin for 2, 6, 16, and 24 hours. After washing with fresh media, cells were further cultured for a total of 48 hours. […] To test whether quercetin affects survival of mDAPs, we treated D9 C4 cells (mostly neuronal precursors) with different concentrations of quercetin for 16 hours and examined outcome on D11."}}}
{"smiles": "NC1=N[C@H](O)[C@H]2[C@H]3O[C@]4(O)O[C@@H]([C@@H](O)[C@@]2(N1)[C@@H]4O)[C@]3(O)CO", "note": "[TTX, tetrodotoxin]", "values": [{"measurement": "transient inward currents evoked by voltage pulses from −70 mV to +40 mV", "setting": "[1]", "result": "completely blocked"}]}
{"smiles": "O=c1c(O)c(-c2ccc(O)c(O)c2)oc2cc(O)cc(O)c12", "note": "[quercetin, 3,3′,4′,5,7-pentahydroxyflavone]", "values": [{"measurement": "calculated number of undifferentiated cells", "setting": "[2]", "result": "less than 1 cell per 100,000 cells"}, {"measurement": "remaining undifferentiated iPSCs, upper boundary of the 95% confidence interval", "setting": "[3]", "result": "< 1 undifferentiated cell per 1 billion day-28 differentiated cells"}, {"measurement": "efficiency of elimination of undifferentiated hiPSCs", "setting": "[4]", "result": "> 99.99", "unit": "%"}, {"measurement": "viable cells", "setting": "[4]; 100,000 undifferentiated C4 cells, >20 μM quercetin for >16 hours, cultured for a total of 48 hours", "result": "undetectable"}, {"measurement": "AP+ colonies", "setting": "[5]; 40 μM quercetin for 16 hours, up to 10^5 hiPSCs plated, 6 days culture", "result": "no AP′ colonies detected"}, {"measurement": "efficacy of quercetin treatment", "setting": "[5]; colony forming assay", "result": "> 99.99", "unit": "%"}, {"measurement": "NANOG+ cells", "setting": "[6]", "result": "none were detected"}, {"measurement": "cell viability and cell number at D11", "setting": "[7]", "result": "Neither cell viability nor number was affected"}]}
